In this test the test system is isolated rabbit thoracic aorta preparations. The test is described as follows: Vessel relaxation in isolated rabbit thoracic aorta preparations. The settings on record: Oryctolagus cuniculus; in vitro, rabbit aortic rings precontracted with noradrenaline (1 μM), functional endothelium. The procedure:
The ability of the compounds to induce vasorelaxation was tested in vitro in isolated rabbit thoracic aorta preparations (Wanstall J. C. et al., Br. J. Pharmacol., 134:463-472, 2001). Male New Zealand rabbits were anaesthetized with thiopental-Na (50 mg/kg, iv), sacrificed by exsanguinations and then the thorax was opened and the aorta dissected. Aortic ring preparations (4 mm in length) were set up in physiological salt solution (PSS) at 37° C. in small organ chambers (5 ml). The composition of PSS was (mM): NaCl 130, NaHCO3 14.9, KH2PO4 1.2, MgSO4 1.2, HEPES 10, CaCl2, ascorbic acid […] and glucose 1.1 (95% O2/5% CO2; pH 7.4). Each ring was mounted under 2 g passive tension. Isometric tension was recorded with a Grass transducer (Grass FT03) attached to a BIOPAC MP150 System. Preparations were allowed to equilibrate for 1 h, and then contracted submaximally with noradrenaline (NA, 1 μM) and, when the contraction was stable, acetylcholine (ACh, 10 μM) was added. A relaxant response to ACh indicated the presence of a functional endothelium. […] When a stable precontraction was reached, a cumulative concentration-response curve to either of the vasorelaxant agents was obtained in the presence of a functional endothelium. Each arterial ring was exposed to only one combination of inhibitor and vasorelaxant. […]
Examples 32 and 48 were evaluated for vessel relaxation.

For the molecule `CCOc1nc2cccc(C(=O)OC(C)OC(=O)OCCC(C)CCO/N=[N+](\[O-])N(C)C(C)(C)C)c2n1Cc1ccc(-c2ccccc2-c2nnn[nH]2)cc1` (centres unmarked) [Example 32, O^2-(5-{[(1-{[(2-ethoxy-1-{[2′-(1H-tetrazol-5-yl)biphenyl-4-yl]methyl}-1H-benzimidazol-7-yl)carbonyl]oxy}ethoxy)carbonyl]oxy}-3-methylpentyl) 1-(N-tert-butylmethylamino)diazen-1-ium-1,2-diolate], the EC50 (commonly the concentration at which the effect is half-maximal) turned out to be 46 µM. Turning to `CCOc1nc2cccc(C(=O)OC(C)OC(=O)O[C@H](C)CCCCO/N=[N+](\[O-])N(C)C(C)(C)C)c2n1Cc1ccc(-c2ccccc2-c2nnn[nH]2)cc1` (stereo partly drawn) [Example 48, O^2-[(5R)-5-{[(1-{[(2-ethoxy-1-{[2′-(1H-tetrazol-5-yl)biphenyl-4-yl]methyl}-1H-benzimidazol-7-yl)carbonyl]oxy}ethoxy)carbonyl]oxy}hexyl] 1-(N-tert-butylmethylamino)diazen-1-ium-1,2-diolate], the EC50 was more than 100 µM.
